In PubChem BioAssay (NCI):
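96-well plates; 48 h exposure; 5 concentrations. Endpoints by linear interpolation between flanking doses. Not reached: highest tested concentration assigned. TGI: concentration producing complete growth inhibition.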

Key:
Assay in all cases: NCI anticancer screen, dose series, 48 h
NCI/ADR-RES ovarian = test system: NCI/ADR-RES ovarian
MDA-MB-435 = test system: MDA-MB-435
MDA-MB-231 breast = test system: MDA-MB-231 breast
UACC-62 melanoma = test system: UACC-62 melanoma
PC-3 prostate = test system: PC-3 prostate
NCI-H226 lung = test system: NCI-H226 lung
EKVX NSCLC = test system: EKVX NSCLC
M14 melanoma = test system: M14 melanoma
SR leukemia = test system: SR leukemia
SK-MEL-2 melanoma = test system: SK-MEL-2 melanoma

Row | Structure (SMILES) | TGI (NCI/ADR-RES ovarian) [µM] | TGI (MDA-MB-435) [µM] | TGI (MDA-MB-231 breast) [µM] | TGI (UACC-62 melanoma) [µM] | TGI (PC-3 prostate) [µM] | TGI (NCI-H226 lung) [µM] | TGI (EKVX NSCLC) [µM] | TGI (M14 melanoma) [µM] | TGI (SR leukemia) [µM] | TGI (SK-MEL-2 melanoma) [µM]
1 | Cc1c(C)n(-c2ccccc2)c2nc(S(C)=O)nc(S(C)=O)c12 (stereo not given) | 59.2 | 9.76 | 17.3 | 20.1 | 19.7 | 36.2 | 22.8 | 6.45 | 2.82 | 10.1
2 | O=C(ON=C1c2ccccc2C(Br)C(Br)c2ccccc21)c1ccccc1 (stereo not given) | 51.4 | 34.9 | 33.5 | 32.7 | 40.2 | 34.1 | 46.6 | 32.6 | 9.12 | > 63.6
3 | N#Cc1c(-c2ccc([N+](=O)[O-])cc2)cc(-c2ccc(Nc3ccnc4cc(Cl)ccc34)cc2)[nH]c1=O | > 100 | > 100 | > 100 | > 100 | > 100 | > 100 | > 100 | > 100 | > 100 | > 100
4 | CCOC(=O)CSc1nc(N)c2c(-c3ccccc3)c3c(nc2n1)CCCC3 | > 100 | > 100 | > 100 | > 100 | > 100 | > 100 | > 100 | > 100 | > 100 | > 100
5 | C[C@@H]1CC[C@@]2(C)C(C(=O)O)=CCCC2[C@@]1(C)CC(=O)c1ccoc1 (stereo not given in full) | > 25 | > 25 | > 25 | > 25 | > 25 | > 25 | > 25 | > 25 | > 25 | > 25
6 | O=C(O)c1nc2ccc(C(F)(F)F)cc2[nH]c1=O | > 100 | > 100 | > 100 | > 100 | > 100 | > 100 | > 100 | > 100 | > 100 | > 100
7 | c1c[nH]c(-c2cccc3nsnc23)c1 | > 100 | > 100 | > 100 | > 100 | > 100 | > 100 | > 100 | > 100 | > 100 | > 100
8 | COc1ccc2c(c1)c1c(n2CCN2CCCCC2)-c2cccc(OC)c2CC1 | 41.5 | 31.5 | 36.6 | 32.9 | 35.6 | 24.1 | 42 | 25 | 44.7 | 32.3
9 | C[n+]1cc2cc(O)c(O)cc2c2ccc3cc(O)c(O)cc3c21 | 6.67 | > 100 | > 100 | 5.34 | 34.4 | > 48.2 | > 100 | > 100 | 9.53 | 12
10 | Cn1c2ccccc2c2ccc3c(c21)C(=O)c1ccc2c4ccccc4n(C)c2c1C3=O | > 100 | > 100 | > 100 | > 100 | > 100 | > 100 | > 100 | > 100 | > 100 | > 100
11 | CC(C)NC(=O)OCc1c(COC(=O)NC(C)C)n(C)c2c1ccc1sccc12 | > 55.7 | 35.1 | 52 | 32.5 | 43.7 | > 30.1 | 34.1 | 36.7 | > 64.6 | 36.2
12 | COc1ccc2nc(NC(=O)/C(C#N)=C/c3ccccc3)sc2c1 | > 69.6 | > 100 | > 100 | > 100 | > 100 | > 100 | > 100 | > 100 | 21.9 | > 100
13 | O=C(CC(NC(=O)C(F)(F)F)C(=O)O)OCc1ccccc1 (stereo not given) | > 100 | > 100 | > 100 | > 100 | > 100 | > 100 | > 100 | > 100 | > 100 | > 100
14 | CC(C)C(Br)CCC1=CCC(Br)(Br)C1 (stereo not given) | 62.1 | 22.5 | 20.7 | 19.9 | 28.5 | 26.9 | 32.5 | 12.9 | > 100 | 19.3
15 | O=c1c(F)cn2c(=O)n1CCCCCCCn1c(=O)c(F)cn(c1=O)CCCCCCC2 | > 100 | > 100 | > 100 | > 100 | > 100 | > 100 | > 100 | > 100 | > 100 | > 100
16 | CN(C)CCn1c(=O)c2ccc(NCCCN(C)CCCNc3ccc4c(=O)n(CCN(C)C)c(=O)n5c6ccc(O)cc6c(=O)c3c45)c3c(=O)c4cc(O)ccc4n(c1=O)c23 | > 46.3 | 0.18 | 0.177 | 0.215 | 0.31 | 0.0488 | 0.929 | 0.805 | 0.642 | 0.275
17 | CCOC(=O)c1c(N2CCCC2)[nH]c(=O)c(C(c2ccc(OC)cc2)c2c(O)c(C(=O)OCC)c(N3CCCC3)[nH]c2=O)c1O | > 100 | > 100 | 88.1 | > 100 | > 100 | > 100 | > 100 | > 100 | > 100 | 53.9

Row | Structure (SMILES) | TGI (NCI/ADR-RES ovarian) [µM] | TGI (MDA-MB-435) [µM] | TGI (MDA-MB-231 breast) [µM] | TGI (UACC-62 melanoma) [µM] | TGI (PC-3 prostate) [µM] | TGI (NCI-H226 lung) [µM] | TGI (EKVX NSCLC) [µM] | TGI (M14 melanoma) [µM] | TGI (SR leukemia) [µM] | TGI (SK-MEL-2 melanoma) [µM]
18 | COC(=O)/C=C(/C=C1/C(C#N)=C(N)N(c2ccc(Cl)cc2)C1(C)/C(=C\C(=O)OC)C(=O)OC)C(=O)OC (stereo not given) | 36.9 | 41 | 53.4 | 27.4 | 35 | 86.4 | > 100 | 39.1 | > 100 | 72.2
19 | CCOC1C=CC(=O)C(CO)O1 (stereo not given) | 33.2 | 25.6 | 32.1 | 25.9 | 28.9 | 46.3 | 33.3 | 31.8 | 6.63 | 37.1
20 | CC(=O)Nc1nc(Cl)cc(NCC2(CO)CCC2)n1 | > 100 | > 100 | > 100 | > 100 | > 100 | > 100 | > 100 | > 100 | > 100 | > 100
21 | OCc1ccc2c(c1)CC1(C2)Cc2cc3c(cc2C1O)CCC3 (stereo not given) | 12.3 | 2.99 | 13.3 | 16.2 | 11.7 | 28.9 | 40.1 | 13 | > 21.7 | 12.7
22 | [N-]=[N+]=CC(=O)C1CCCN1C(=O)c1ccccc1 (stereo not given) | > 10 | > 10 | > 10 | > 10 | > 10 | > 10 | > 10 | > 10 | > 10 | > 10
23 | O=c1oc2ccccc2c(O)c1Cc1ccc(Cc2c(O)c3ccccc3oc2=O)cc1 | > 100 | > 100 | > 100 | > 100 | > 100 | > 100 | > 100 | > 100 | > 100 | > 100
24 | O=C(NCc1ccccc1)c1cc2ccccc2oc1=Nc1cccc(C(F)(F)F)c1 | > 100 | > 100 | > 100 | > 100 | > 100 | 97.7 | > 100 | > 100 | 66.1 | > 100
25 | Cc1ccc2c(c1C)C(=O)C1(Cc3cc4c(cc3C1=O)CCC4)C2 (stereo not given) | > 100 | > 100 | > 100 | > 100 | > 100 | > 100 | > 100 | > 100 | > 100 | > 100
26 | CN(C)CCN(c1ccccn1)c1ccccn1 | > 100 | > 100 | > 100 | > 100 | > 100 | > 100 | > 100 | > 100 | > 100 | > 100
27 | OCc1cn(Cc2ccccc2)c2ccccc12 | 42.4 | > 64.7 | 54.5 | 4.98 | 78.2 | 0.123 | > 100 | > 54.3 | > 100 | 24.6
28 | COc1ccc2ccc3oc(=O)c(C)cc3c2c1 | > 100 | > 100 | > 100 | > 100 | > 100 | > 100 | > 100 | > 100 | > 100 | > 100
29 | CC1=CC2C3(C)C(C)(C(C)=CP3(=O)c3c(C(C)C)cc(C(C)C)cc3C(C)C)C1P2(=O)c1c(C(C)C)cc(C(C)C)cc1C(C)C (stereo not given) | 9.89 | 5.33 | 3.87 | 2.92 | 10.4 | 6.08 | 9.83 | 4.21 | 3.92 | 3.37
30 | O=CC(I)=C(c1ccccc1)c1ccccc1 | 45.1 | 31.4 | 29 | 34.5 | 29.3 | 57 | 36 | 35.2 | 27.9 | 33.4
31 | CN(O)C(=O)/C=C/c1ccc(OCc2cccc(Cl)c2)cc1 | 46.7 | > 100 | > 100 | 31.3 | > 100 | 73.9 | > 100 | > 100 | 38.4 | 82.7
32 | CC1(C)CC(=O)C2=C(C1)C(c1ccccc1Cl)C1C(=O)CC(C)(C)CC1(O)O2 (stereo not given) | > 100 | > 95.8 | > 100 | > 100 | > 100 | > 100 | > 100 | > 100 | > 100 | > 100
33 | O=C(COc1ccc(OCC(=O)N/N=C/c2ccc(-c3ccc(Cl)cc3Cl)o2)c(Cl)c1)N/N=C/c1ccc(-c2ccc(Cl)cc2Cl)o1 | > 100 | > 100 | > 100 | > 100 | > 100 | > 100 | 89.5 | > 100 | 8.25 | > 100
